The source made the active and inactive calls.

The target of one experiment is Estrogen receptor beta (Homo sapiens, UniProt Q92731).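 Also: recombinant ER-beta bound to coactivator SRC1 peptide in presence of estradiol agonist; inhibitors block coactivator peptide binding and lower the FRET signal.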
Experiment [1] has as its target 5-hydroxytryptamine receptor 2A (Mus musculus, UniProt P35363). It counts as functional, cell-based.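 Also: CHO-K1 cells with tagged receptor and beta-arrestin; agonist potency measured as compound-induced activation of the receptor.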
Another experiment concerns the target Mu-type opioid receptor (Homo sapiens, UniProt P35372). It counts as functional, cell-based.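 Also: U2OS cells with beta-arrestin recruitment to OPRM1 by beta-gal complementation.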
Another experiment has as its target Protein Wnt-3a (Mus musculus, UniProt P27467). The experiment is described as follows: antagonism of Wnt3a pathway luciferase reporter – Wnt-LIGHT cells, luminescence, selectivity assay for Gli-SUFU antagonist project, dose response (AID 651570).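 Also: Wnt-LIGHT reporter cells stimulated with conditioned medium from Wnt3a-producing cells.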 It counts as functional. To be noted: read-out: IC50_Mean. (In a reporter assay the amount or activity of a reporter protein is the signal.)

The target in experiment [2] is T1, Sentrin-specific protease 8 (Homo sapiens, UniProt Q96LD8).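 Also: luminescence read-out of SENP8 inhibition, dose-response confirmation following an ultra-high-throughput screen.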
T1 sequence (Q96LD8 whole entry): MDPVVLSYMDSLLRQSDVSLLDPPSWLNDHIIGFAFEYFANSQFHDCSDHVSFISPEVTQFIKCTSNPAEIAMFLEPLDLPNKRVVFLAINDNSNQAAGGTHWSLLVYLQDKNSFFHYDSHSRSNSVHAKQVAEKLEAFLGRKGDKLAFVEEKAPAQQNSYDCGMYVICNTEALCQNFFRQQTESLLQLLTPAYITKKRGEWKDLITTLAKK
Type of experiment: functional.

The target of experiment [3] is T2, Sentrin-specific protease 7 (Homo sapiens, UniProt Q9BQF6).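 Also: Luminescence-based dose-response confirmation of ultra-high-throughput screening hits, measuring inhibition of SENP7.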
T2 sequence (Q9BQF6 whole entry): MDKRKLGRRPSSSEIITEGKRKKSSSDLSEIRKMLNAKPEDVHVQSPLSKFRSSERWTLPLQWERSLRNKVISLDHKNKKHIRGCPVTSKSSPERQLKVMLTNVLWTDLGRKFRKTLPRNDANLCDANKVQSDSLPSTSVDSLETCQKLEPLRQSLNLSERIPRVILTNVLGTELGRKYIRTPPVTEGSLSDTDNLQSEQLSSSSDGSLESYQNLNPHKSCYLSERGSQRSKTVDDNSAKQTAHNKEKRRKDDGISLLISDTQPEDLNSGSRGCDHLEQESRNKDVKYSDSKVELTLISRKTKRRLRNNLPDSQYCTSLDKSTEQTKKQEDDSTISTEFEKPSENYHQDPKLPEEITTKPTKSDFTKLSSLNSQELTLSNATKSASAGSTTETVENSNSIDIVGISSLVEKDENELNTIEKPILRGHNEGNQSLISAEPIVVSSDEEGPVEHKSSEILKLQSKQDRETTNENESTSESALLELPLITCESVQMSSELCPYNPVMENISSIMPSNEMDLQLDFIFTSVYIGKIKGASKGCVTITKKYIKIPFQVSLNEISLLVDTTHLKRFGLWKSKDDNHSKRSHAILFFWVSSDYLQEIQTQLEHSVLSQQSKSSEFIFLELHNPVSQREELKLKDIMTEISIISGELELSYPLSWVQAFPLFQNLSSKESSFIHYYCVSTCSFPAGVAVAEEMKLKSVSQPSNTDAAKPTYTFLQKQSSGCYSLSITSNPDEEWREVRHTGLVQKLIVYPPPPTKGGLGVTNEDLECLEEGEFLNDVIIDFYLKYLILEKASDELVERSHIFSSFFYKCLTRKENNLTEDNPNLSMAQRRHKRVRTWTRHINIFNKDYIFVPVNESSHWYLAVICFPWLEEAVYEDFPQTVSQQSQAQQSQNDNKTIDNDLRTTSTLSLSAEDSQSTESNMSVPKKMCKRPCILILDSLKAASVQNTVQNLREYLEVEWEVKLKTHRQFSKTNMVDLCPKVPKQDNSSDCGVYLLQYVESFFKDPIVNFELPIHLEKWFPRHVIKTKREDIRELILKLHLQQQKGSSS
Type of experiment: functional.

A further experiment addresses T3, Caspase-3 (Homo sapiens, UniProt P42574).
T3 sequence (P42574 whole entry): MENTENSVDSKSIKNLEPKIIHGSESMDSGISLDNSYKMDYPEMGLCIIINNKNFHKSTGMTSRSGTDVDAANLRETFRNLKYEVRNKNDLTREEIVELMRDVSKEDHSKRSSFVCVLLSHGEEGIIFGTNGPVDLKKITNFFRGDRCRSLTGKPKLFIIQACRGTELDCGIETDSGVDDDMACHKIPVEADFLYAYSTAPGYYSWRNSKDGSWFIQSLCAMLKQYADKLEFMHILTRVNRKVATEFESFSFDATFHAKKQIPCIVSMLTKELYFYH
It counts as functional.

For another experiment, the target named is T4, Coagulation factor XII (Homo sapiens, UniProt P00748).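 Also: activated factor XIIa alpha cleaving a fluorogenic AMC peptide substrate; inhibitor potency from loss of enzyme activity.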
T4 sequence (P00748 whole entry): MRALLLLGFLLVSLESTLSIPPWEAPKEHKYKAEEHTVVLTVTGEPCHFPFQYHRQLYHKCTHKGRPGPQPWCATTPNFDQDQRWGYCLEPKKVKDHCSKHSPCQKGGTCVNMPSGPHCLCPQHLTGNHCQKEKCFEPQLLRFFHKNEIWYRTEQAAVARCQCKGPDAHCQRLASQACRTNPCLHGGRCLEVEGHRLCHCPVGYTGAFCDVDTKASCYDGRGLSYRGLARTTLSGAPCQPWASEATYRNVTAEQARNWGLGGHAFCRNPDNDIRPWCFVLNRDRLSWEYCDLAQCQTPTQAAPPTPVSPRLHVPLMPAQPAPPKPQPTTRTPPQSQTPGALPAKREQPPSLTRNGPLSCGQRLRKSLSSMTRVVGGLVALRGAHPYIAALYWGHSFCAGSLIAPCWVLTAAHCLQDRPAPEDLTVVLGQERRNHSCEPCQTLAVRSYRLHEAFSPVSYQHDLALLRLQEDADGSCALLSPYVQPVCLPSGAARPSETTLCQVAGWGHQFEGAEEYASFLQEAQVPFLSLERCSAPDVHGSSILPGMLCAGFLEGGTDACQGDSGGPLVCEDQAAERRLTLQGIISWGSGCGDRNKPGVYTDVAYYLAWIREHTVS
It counts as functional.

Experiment [4] concerns the target T5, Sentrin-specific protease 6 (Homo sapiens, UniProt Q9GZR1).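 Also: Luminescence-based dose-response confirmatory assay of SENP6 inhibition, following up an ultra-high-throughput screen.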
T5 sequence (Q9GZR1 whole entry): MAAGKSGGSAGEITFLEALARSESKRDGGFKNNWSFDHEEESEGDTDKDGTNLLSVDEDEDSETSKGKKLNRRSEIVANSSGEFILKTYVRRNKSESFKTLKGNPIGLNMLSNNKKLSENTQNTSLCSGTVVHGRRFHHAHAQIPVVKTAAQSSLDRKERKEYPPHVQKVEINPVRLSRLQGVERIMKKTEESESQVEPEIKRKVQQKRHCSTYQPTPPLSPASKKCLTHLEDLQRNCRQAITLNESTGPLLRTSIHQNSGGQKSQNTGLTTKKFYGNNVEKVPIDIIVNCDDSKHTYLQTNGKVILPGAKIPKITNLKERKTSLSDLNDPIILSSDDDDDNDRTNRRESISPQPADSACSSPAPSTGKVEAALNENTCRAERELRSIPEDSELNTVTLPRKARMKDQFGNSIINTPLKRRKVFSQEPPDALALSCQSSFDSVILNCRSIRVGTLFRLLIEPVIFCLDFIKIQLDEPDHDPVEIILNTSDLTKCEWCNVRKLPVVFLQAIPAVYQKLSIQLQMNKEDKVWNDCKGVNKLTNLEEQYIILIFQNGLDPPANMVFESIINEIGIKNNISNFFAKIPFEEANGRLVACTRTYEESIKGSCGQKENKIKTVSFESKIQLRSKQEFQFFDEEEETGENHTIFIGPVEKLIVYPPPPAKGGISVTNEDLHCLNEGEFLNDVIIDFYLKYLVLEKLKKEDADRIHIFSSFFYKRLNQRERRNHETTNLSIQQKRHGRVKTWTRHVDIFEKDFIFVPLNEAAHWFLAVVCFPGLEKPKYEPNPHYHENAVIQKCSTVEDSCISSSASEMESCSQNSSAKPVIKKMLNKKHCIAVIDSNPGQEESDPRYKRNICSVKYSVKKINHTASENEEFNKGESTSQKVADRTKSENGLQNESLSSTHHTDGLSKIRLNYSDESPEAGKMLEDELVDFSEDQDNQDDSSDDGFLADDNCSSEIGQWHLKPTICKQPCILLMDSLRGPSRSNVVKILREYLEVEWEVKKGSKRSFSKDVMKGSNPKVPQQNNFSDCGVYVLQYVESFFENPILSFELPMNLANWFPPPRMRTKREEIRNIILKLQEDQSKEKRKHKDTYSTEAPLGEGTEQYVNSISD
It counts as functional.

Experiment [5] can be described thus: viability loss in THP-1 monocytes – THP-1 cells, cytotoxicity control for Vif-APOBEC3G degradation inhibitor project, dose response (AID 1117359). It counts as functional. To be noted: THP-1.
A short description of experiment [6]: blockers of bursicon-stimulated LGR2 cAMP reporter – cell-based, HEK293, CRE-luciferase reporter, cherry pick, set 2, dose response (AID 743343).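 Also: transfected cells were stimulated with diluted bursicon conditioned medium after compound addition.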 It counts as functional.
Experiment [7] is described as follows: A549 cell cytotoxicity, dose response, cytotoxicity control, plate reader, cherry-pick, antagonist series (AID 743412). It counts as functional, cell-based.
The nature of experiment [8]: blockade of melanocortin 4 receptor signaling – cell-based, plate reader, cherry pick, counter-screen for LGR2 antagonist project, dose response (AID 743444).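 Also: transfected HEK 293 cells stimulated with alpha-MSH peptide; potency of inhibitors of the alpha-MSH evoked signal.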 Type of experiment: functional. (A counterscreen serves to expose hits that act by an unwanted route or on another target.)
The target of the next experiment is T6, Aminopeptidase N (Plasmodium falciparum FcB1/Columbia, UniProt O96935).
T6 sequence (O96935 whole entry): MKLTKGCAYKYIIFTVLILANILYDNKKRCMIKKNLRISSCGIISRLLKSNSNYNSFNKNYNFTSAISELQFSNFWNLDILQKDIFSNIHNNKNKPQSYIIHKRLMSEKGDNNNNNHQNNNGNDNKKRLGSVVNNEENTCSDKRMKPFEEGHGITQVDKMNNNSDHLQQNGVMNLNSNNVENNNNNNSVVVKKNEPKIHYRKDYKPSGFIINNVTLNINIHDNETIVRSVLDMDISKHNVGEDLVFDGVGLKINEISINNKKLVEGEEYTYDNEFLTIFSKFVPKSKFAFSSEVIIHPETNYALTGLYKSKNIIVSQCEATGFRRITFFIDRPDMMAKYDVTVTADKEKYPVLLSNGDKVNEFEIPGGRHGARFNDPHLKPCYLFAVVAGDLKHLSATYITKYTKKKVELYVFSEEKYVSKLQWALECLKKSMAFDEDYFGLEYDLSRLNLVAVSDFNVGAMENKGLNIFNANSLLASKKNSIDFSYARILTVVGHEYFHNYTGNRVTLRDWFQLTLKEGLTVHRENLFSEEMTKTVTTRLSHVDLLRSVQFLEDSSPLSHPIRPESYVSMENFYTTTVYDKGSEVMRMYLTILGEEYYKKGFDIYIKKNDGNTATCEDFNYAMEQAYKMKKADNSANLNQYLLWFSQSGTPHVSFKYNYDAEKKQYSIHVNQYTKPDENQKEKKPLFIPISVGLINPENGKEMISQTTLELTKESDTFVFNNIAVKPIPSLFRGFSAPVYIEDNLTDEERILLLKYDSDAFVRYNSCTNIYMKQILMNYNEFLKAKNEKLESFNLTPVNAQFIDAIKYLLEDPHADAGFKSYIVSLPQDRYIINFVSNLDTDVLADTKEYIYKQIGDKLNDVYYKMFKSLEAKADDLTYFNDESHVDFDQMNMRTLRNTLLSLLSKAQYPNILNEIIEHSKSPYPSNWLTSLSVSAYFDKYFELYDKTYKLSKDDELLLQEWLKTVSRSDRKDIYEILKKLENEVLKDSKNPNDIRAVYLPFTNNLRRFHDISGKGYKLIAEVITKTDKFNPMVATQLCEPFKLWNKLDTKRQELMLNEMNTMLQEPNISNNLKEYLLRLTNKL
The experiment is described as follows: malaria alanyl aminopeptidase activity blockers – biochemical, fluorogenic H-Leu-NHMec substrate, 1536-well (AID 1445). More on the design: species or system Plasmodium falciparum 3D7, 3D7.

Chain of Protein Wnt-3a (P27467 whole entry): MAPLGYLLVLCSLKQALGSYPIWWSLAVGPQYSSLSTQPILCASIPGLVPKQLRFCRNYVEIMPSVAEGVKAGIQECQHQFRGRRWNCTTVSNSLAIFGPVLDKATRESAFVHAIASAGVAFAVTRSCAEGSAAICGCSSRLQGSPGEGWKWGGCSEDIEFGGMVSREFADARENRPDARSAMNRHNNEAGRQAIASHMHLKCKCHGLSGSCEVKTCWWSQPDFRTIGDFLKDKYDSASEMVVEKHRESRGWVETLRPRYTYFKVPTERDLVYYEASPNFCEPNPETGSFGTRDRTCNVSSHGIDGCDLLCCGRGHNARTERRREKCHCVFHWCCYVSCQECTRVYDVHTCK
Chain of 5-hydroxytryptamine receptor 2A (P35363 whole entry): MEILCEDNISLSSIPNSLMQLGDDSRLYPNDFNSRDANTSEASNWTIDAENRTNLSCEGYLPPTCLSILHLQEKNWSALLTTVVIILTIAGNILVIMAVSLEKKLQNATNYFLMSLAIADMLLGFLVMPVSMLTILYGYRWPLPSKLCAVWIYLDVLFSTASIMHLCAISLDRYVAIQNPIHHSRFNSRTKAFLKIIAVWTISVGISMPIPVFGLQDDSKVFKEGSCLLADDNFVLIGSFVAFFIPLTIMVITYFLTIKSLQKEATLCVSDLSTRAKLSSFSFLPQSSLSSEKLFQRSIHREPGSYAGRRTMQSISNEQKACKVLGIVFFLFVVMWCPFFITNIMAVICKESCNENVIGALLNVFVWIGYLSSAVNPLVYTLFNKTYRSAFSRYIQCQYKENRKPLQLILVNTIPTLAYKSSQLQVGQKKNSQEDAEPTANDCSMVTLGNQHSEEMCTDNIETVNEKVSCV
Chain of Mu-type opioid receptor (P35372 whole entry): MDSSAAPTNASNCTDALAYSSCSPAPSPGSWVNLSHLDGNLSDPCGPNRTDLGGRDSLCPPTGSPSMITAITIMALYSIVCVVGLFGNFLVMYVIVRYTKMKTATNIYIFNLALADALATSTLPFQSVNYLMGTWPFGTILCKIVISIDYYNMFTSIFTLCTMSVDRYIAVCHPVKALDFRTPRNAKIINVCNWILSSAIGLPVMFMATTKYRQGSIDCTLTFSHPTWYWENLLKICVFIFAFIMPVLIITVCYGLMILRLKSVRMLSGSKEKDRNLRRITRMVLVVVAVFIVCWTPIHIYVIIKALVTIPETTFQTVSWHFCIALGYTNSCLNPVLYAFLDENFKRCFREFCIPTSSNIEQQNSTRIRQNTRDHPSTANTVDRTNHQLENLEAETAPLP
Chain of Estrogen receptor beta (Q92731 whole entry): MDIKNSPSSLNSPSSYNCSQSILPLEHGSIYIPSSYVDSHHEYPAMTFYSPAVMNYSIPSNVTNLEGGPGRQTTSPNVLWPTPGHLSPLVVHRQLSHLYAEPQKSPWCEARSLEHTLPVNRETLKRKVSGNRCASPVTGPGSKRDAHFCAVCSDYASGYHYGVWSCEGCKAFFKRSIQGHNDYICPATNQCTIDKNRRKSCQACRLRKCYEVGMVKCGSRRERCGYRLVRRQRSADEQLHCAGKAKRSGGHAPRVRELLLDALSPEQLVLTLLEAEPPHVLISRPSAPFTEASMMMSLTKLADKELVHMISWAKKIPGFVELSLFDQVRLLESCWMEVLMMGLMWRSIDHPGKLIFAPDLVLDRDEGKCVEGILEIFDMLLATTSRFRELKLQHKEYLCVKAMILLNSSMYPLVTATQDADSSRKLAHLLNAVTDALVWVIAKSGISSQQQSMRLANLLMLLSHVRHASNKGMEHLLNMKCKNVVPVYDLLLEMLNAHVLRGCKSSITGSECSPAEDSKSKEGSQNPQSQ

Consider `Cc1cccc(-n2c(SCc3cc(=O)n4c(C)cccc4n3)nc3nncc-3c2O)c1`, for which the IC50 on Estrogen receptor beta is listed as > 50 µM (not active).
The term EC50 denotes the concentration at which the effect is half-maximal. Turning to `O=[N+]([O-])c1cccnc1N1CCN(Cc2ccc3c(c2)OCO3)CC1`, the values for the concentration giving a half-maximal response (EC50) (in experiment [1]; on Mu-type opioid receptor) were 0.00977 µM (active) and 92.5 µM (inactive), respectively.
Turning to `CC(C)(C)c1ccc(-n2ncc3c2CCCC3NC(=O)CCN2CCCC2=O)cc1` (configuration not stated), at Protein Wnt-3a, the IC50 was 0.973 µM (active).
Regarding `CCOC(=O)N1CCN(Cc2ccc3c(c2)OCO3)CC1`, the EC50 in [1] was 1.19 µM (active); on Mu-type opioid receptor, 92.4 µM (inactive).
As for `Cc1ccc(C)c(-c2nc3cc(N)ccc3o2)c1`, the IC50 is 31.1 µM (active) in [2]; 9.65 µM (active) in experiment [3]; 27.5 µM (active) on Caspase-3; > 50 µM (inactive) on Coagulation factor XII; 25.2 µM (active) in [4].
In the case of `CCOC(=O)Cc1nn(C)c(=O)c2ccccc12`, the IC50 at Estrogen receptor beta is > 50 µM (not active).
Turning to `Cc1ccc(CN2CCN(c3ncccn3)CC2)o1`, the EC50 was 4 µM (active) in [1] and 92.4 µM (inactive) on Mu-type opioid receptor.
On to `O=C(CCc1ccccc1)Nc1ccc(N2CCOCC2)cc1`, for which the IC50 against Estrogen receptor beta is on record as > 50 µM (not active).
By CC50 is commonly meant the concentration that lowers cell viability or growth by half. `CC(C)(C)c1ccc(NC(=O)N2CCN(c3ccc([N+](=O)[O-])cn3)CC2)cc1`: the CC50 in [5] is 37.5 µM (active).
Take `c1ccc(-c2cn3c([n+]2-c2ccccc2)CCC3)cc1`: the IC50 at Protein Wnt-3a is 5.16 µM (active).
Still for that read-out and setting: the same measure for `CC(C)n1c(-c2ccco2)cs/c1=N/c1cccnc1`: 10.5 µM (active).
In general, AC50 refers to the midpoint of the concentration-response curve, whichever way the signal moves. Consider `CC(=O)N1CCCCN2[C@H](CO)[C@H](c3ccc(-c4cccc(C)c4)cc3)[C@@H]2C1`, for which the concentration at half-maximal activity (AC50) in experiment [6] was 19.2 µM (active); in [7], > 52 µM (inactive); in experiment [8], 9.64 µM (active).
`O=C(O)COc1ccccc1/C=N/NC(=O)CSc1nnc(SCc2ccc(Cl)cc2)s1`: the IC50 was > 100 µM (inactive) in experiment [2]; 15.8 µM (active) in [3]; 41.1 µM (active) at Caspase-3; 16.6 µM (active) on Aminopeptidase N; 22.5 µM (active) in [4].
With `COc1ccc2c(c1)c(C)cc[n+]2Cc1ccccc1`, the IC50 at Protein Wnt-3a is 2.07 µM (active).

The values are drawn from ChEMBL document CHEMBL1201862, “PubChem BioAssay data set” (2004).
